Experimental data from patent US12297285B2 (Orna Therapeutics, Inc., priority 2022, dated 2025).

What was measured:
Test in all cases: IRES screening, Gaussia luciferase from LNP-oRNA (Table 27)
Details in all cases: Gaussia luciferase luminescence in supernatant 48 hours after LNP-oRNA transfection, normalized to control (caprine kobuvirus IRES)
[1] = tested on: primary human hepatocytes
[2] = tested on: activated primary human T cells
[3] = tested on: primary human skeletal myotubes

CCCCCCCCC(CC)OC(=O)CCCCCCCN(CCCCCCCC(=O)OC(CCCCCCCC)CCCCCCCC)CCCn1ccnc1C (stereo not drawn) [Lipid 10a-138] was tested, and the “[Mod] PHH Fold Change” value [1] was 0.6157 Fold Change, the “[Mod] T Fold Change” value [2] was 0.6378 Fold Change and the “[Mod] Fold Change Myo” value [3] was 0.3723 Fold Change.

For CCCCCCCCC(CCCCCC)C(=O)OCCCCCCN(CCCCCCOC(=O)C(CCCCCC)CCCCCCCC)CCn1ccnc1C (stereo not drawn) [Lipid 10a-139], the “[Mod] PHH Fold Change” value [1] was 0.5206 Fold Change, the “[Mod] T Fold Change” value [2] was 0.09732 Fold Change and the “[Mod] Fold Change Myo” value [3] was 0.0597 Fold Change.

For CCCCC/C=C\C/C=C\CCCCCCCC(=O)OCC(COC(=O)CCC(OCCCCCCCC)OCCCCCCCC)COC(=O)OCCCn1ccnc1 (stereo not drawn) [Lipid 10a-140], the “[Mod] PHH Fold Change” value [1] was 0.7154 Fold Change, the “[Mod] T Fold Change” value [2] was 0.3995 Fold Change and the “[Mod] Fold Change Myo” value [3] was 0.1601 Fold Change.

CCCCC/C=C\C/C=C\CCCCCCCC(=O)OCC(COC(=O)CCC(OCCCCCCCC)OCCCCCCCC)COC(=O)OCCCn1ccnc1C (stereo not drawn) [Lipid 10a-141] was tested, and the “[Mod] PHH Fold Change” value [1] was 0.547 Fold Change, the “[Mod] T Fold Change” value [2] was 0.03106 Fold Change and the “[Mod] Fold Change Myo” value [3] was 0.04025 Fold Change.

With CCCCCCCCCN(CCCn1ccnc1)C(CCCCCCCCC(=O)OCC(CCCC)CCCCCC)CCCCCCCCC(=O)OCC(CCCC)CCCCCC (stereo not drawn) [Lipid 10a-142] the “[Mod] PHH Fold Change” value [1] was 0.468 Fold Change, the “[Mod] T Fold Change” value [2] was 0.02743 Fold Change and the “[Mod] Fold Change Myo” value [3] was 0.03852 Fold Change.

For CCCCCCCCC(CCCCCC)OCCOC(=O)CCN(CCCn1ccnc1C)CCC(=O)OCCOC(CCCCCC)CCCCCCCC (stereo not drawn) [Lipid 10a-143], the “[Mod] PHH Fold Change” value [1] was 0.4209 Fold Change, the “[Mod] T Fold Change” value [2] was 0.03265 Fold Change and the “[Mod] Fold Change Myo” value [3] was 0.03901 Fold Change.

With CCCCCCCCCN(CCn1ccnc1C)C(CCCCCCCCC(=O)OCC(CCCC)CCCCCC)CCCCCCCCC(=O)OCC(CCCC)CCCCCC (stereo not drawn) [Lipid 10a-145] the “[Mod] PHH Fold Change” value [1] was 0.6359 Fold Change, the “[Mod] T Fold Change” value [2] was 0.0263 Fold Change and the “[Mod] Fold Change Myo” value [3] was 0.03927 Fold Change.

In the case of CCCCCCCCCN(CCn1ccnc1)C(CCCCCCCCC(=O)OCC(CCCC)CCCCCC)CCCCCCCCC(=O)OCC(CCCC)CCCCCC (stereo not drawn) [Lipid 10a-146], the “[Mod] PHH Fold Change” value [1] is reported as 0.5873 Fold Change, the “[Mod] T Fold Change” value [2] is reported as 0.03465 Fold Change and the “[Mod] Fold Change Myo” value [3] is reported as 0.04323 Fold Change.

In the case of CCCCCCCCCN(CCCCn1ccnc1C)C(CCCCCCCCC(=O)OCC(CCCC)CCCCCC)CCCCCCCCC(=O)OCC(CCCC)CCCCCC (stereo not drawn) [Lipid 10a-147], the “[Mod] PHH Fold Change” value [1] is reported as 0.5594 Fold Change, the “[Mod] T Fold Change” value [2] is reported as 0.03662 Fold Change and the “[Mod] Fold Change Myo” value [3] is reported as 0.04264 Fold Change.

For CCCCCCCCCN(CCCCn1ccnc1)C(CCCCCCCCC(=O)OCC(CCCC)CCCCCC)CCCCCCCCC(=O)OCC(CCCC)CCCCCC (stereo not drawn) [Lipid 10a-148], the “[Mod] PHH Fold Change” value [1] was 0.7368 Fold Change, the “[Mod] T Fold Change” value [2] was 0.02909 Fold Change and the “[Mod] Fold Change Myo” value [3] was 0.03913 Fold Change.

For CCCCCCCCC(CCCCCC)C(=O)OCCCCCCN(CCCn1ccnc1C)CC(O)CCCCOC(=O)C(CCCCCC)CCCCCCCC (stereo not drawn) [Lipid 10a-149], the “[Mod] PHH Fold Change” value [1] was 0.7118 Fold Change, the “[Mod] T Fold Change” value [2] was 0.02893 Fold Change and the “[Mod] Fold Change Myo” value [3] was 0.03919 Fold Change.

CCCCCCCCCCCCC(O)CN(CCCCCCCC(=O)OC(CCCCCCCC)CCCCCCCC)CCCn1ccnc1C (stereo not drawn) [Lipid 10a-150] was tested, and the “[Mod] PHH Fold Change” value [1] was 0.5147 Fold Change, the “[Mod] T Fold Change” value [2] was 0.02705 Fold Change and the “[Mod] Fold Change Myo” value [3] was 0.03864 Fold Change.
